Assay results published in US9605013B2, “Derivatives of hemin with antibacterial and antiviral activity” (OBSCHESTVO S OGRANICHENNOI OTVETSTVENNOSTIYU …, priority 2011, dated 2017).

Test system: Herpes Simplex Virus type 1 strain EC
Assay: Antiviral activity, virus cytopathogenic action in Vero cells
Type: cell-based
Parameters: key: 0: CPA (cytopathogenic action) is not detected; 1: up to 25% virus-infected monolayer; from 25% to 50%; 3: from 50% to 75%; 4: from 75% to 100%
Conditions: 48 hours
[1] = HSV-1, virus dose 1, concentration 0.1 μM
[2] = HSV-1, virus dose 1, concentration 1 μM
[3] = HSV-1, virus dose 1, concentration 10 μM
[4] = HSV-1, virus dose 10, concentration 0.1 μM
[5] = HSV-1, virus dose 10, concentration 1 μM
[6] = HSV-1, virus dose 10, concentration 10 μM
[7] = HSV-1, virus dose 100, concentration 0.1 μM
[8] = HSV-1, virus dose 100, concentration 1 μM
[9] = HSV-1, virus dose 100, concentration 10 μM

Compound | manifestation of the virus CPA [1] | manifestation of the virus CPA [2] | manifestation of the virus CPA [3] | manifestation of the virus CPA [4] | manifestation of the virus CPA [5] | manifestation of the virus CPA [6] | manifestation of the virus CPA [7] | manifestation of the virus CPA [8] | manifestation of the virus CPA [9]
6,7-bis-(Amide N^α-Glycyl)-Protohemin (IX) [IV] | 1 (up to 25% virus-infected monolayer) | 1 (up to 25% virus-infected monolayer) | 0^1 | 2 (from 25% to 50%) | 2 (from 25% to 50%) | 0^1 | 3 (from 50% to 75%) | 3 (from 50% to 75%) | 2^1 (from 25% to 50%)
C=CC1=C(C)c2cc3[n-]c(cc4[n-]c(cc5nc(cc1n2)C(C)=C5C=C)c(C)c4CCC(=O)N[C@@H](CO)C(=O)O)c(CCC(=O)N[C@@H](CO)C(=O)O)c3C.[Cl-].[Fe+3] [VI, 6,7-bis-(N^α-Seryl]-Protohemin (IX)] | 0^1 | 0^1 | 0^1 | 2 (from 25% to 50%) | 2 (from 25% to 50%) | 2^ (from 25% to 50%) | 3 (from 50% to 75%) | 3.3 scores | 3 (from 50% to 75%)
